From ChEMBL document CHEMBL1201862, “PubChem BioAssay data set” (2004)
Active and inactive are the calls of the source.

What was measured:
[1] = viability of HCT116 lacking mutant beta-catenin – cell-based, human colon tumor, dose response (AID 1045); type: functional;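 further: HCT116 colon tumor cells with beta catenin knocked out; cells exposed to compound for 60 hours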
[2] = viability of PTEN-deleted HCT116 cells – cell-based, HCT116 PTEN knockout, dose response (AID 1047); type: functional;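 further: HCT116 colon tumor cells with PTEN knocked out; cells exposed to compound for 60 hours before readout; potency for loss of cell viability measured by luminescence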
HEK293 = assay: EBV LMP1 TES2 canonical NF-kB signalling blockers – cell-based, HEK293, luciferase, cherry-pick, dose response (AID 588343); type: functional; settings: Homo sapiens
[3] = molecular target: T1, RNA-binding protein pos-1 (Caenorhabditis elegans, UniProt G5EF15); assay: disruptors of C. elegans POS-1 RNA interaction – biochemical, fluorescence polarization, dose response (AID 1964);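 further: purified POS-1 fused to maltose binding protein made in E. coli; potency of compounds blocking POS-1 binding to fluorescent RNA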
T1 sequence (G5EF15 whole entry): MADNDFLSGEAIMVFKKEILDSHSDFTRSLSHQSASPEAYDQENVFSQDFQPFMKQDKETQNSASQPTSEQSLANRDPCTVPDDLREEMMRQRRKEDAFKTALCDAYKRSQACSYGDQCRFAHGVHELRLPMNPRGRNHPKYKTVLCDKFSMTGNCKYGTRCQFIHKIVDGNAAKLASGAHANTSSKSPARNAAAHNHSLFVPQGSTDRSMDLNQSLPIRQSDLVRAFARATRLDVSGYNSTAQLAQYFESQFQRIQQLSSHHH

[4] = A cytotoxicity screen of small molecule inhibitors of the PhoP region in Salmonella typhi identified in the primary screen. [Related pubchem assays: 1850, 1864, 1985 ]; type: functional
cells [5] = type: functional, cell-based
cells [6] = type: functional, cell-based; remark: listed apart in the source
[7] = molecular target: Heat shock protein HSP 90-alpha (Homo sapiens, UniProt P07900); type: functional, organism-based
INS1 = assay: INS-1E survival protection against cytokine death – cell-based, luminescence, retest, dose response (AID 449756); type: functional; settings: Rattus norvegicus;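 further: cell death triggered by IL-1 beta plus TNF-alpha plus IFN-gamma mixture; protective hits raise ATP signal compared with cytokine alone wells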
[8] = viability of uninfected HEp-2 cells – cell-based, HTS, cytotoxicity control for RSV inhibitor project, dose response (AID 2410); type: functional; settings: human respiratory syncytial virus
Streptokinase A = molecular target: T2, Streptokinase A (Streptococcus pyogenes serotype M1, UniProt P10520); assay: viability-normalized secreted streptokinase activity reduction – plasminogen activation absorbance, OD405, dose response (AID 1914); type: functional, Streptococcus pyogenes M1 GAS;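 further: secreted streptokinase activity via plasminogen activation per viability signal from cell pellet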
T2 sequence (P10520 whole entry): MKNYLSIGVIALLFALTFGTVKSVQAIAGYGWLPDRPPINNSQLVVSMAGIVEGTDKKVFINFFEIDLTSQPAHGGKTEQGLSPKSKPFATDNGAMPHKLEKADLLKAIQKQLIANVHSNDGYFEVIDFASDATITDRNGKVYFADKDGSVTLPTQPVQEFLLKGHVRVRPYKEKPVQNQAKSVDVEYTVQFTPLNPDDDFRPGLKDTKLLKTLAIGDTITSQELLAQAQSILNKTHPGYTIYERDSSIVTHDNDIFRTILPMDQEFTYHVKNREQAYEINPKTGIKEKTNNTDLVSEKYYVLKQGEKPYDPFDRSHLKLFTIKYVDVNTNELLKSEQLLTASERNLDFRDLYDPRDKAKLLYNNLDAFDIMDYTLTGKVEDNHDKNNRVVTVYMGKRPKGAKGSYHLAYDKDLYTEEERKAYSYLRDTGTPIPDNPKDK

[9] = system: Streptococcus sp. 'group A'; assay: Streptococcus pyogenes SK(-)GAS viability under kanamycin – luminescence, BacTiterGlo, confirmation, counter-screen for streptokinase expression inhibitor project, dose response (AID 1900); type: functional, organism-based
[10] = luciferase reporter signal suppression in cells – H4 neuroglioma cells, luminescence, dose response (AID 1990); type: functional, cell-based
cells [11] = assay: cells
[12] = Luminescence Cell-Based Dose Response HTS to Identify Inhibitors of 5'UTR Stem-Loop Driven Prion Protein mRNA Translation in H4 Neuroglioblastoma Cells. [Related pubchem assays: 1827 (Project Summary), 1813 (Primary HTS)]; type: functional
Streptococcus = assay: GAS UMAA2166 growth inhibition – luminescence, BacTiterGlo, counter-screen for streptokinase expression inhibitor project, dose response (AID 1915); type: functional, organism-based;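 further: potency for reduction of bacterial viability or growth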
[13] = NIH-3T3 fibroblast cytotoxicity, dose response, cytotoxicity control, cell-based, fluorescence, Alamar Blue, secondary assay (AID 2327); type: functional;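 further: NIH-3T3 mouse fibroblasts cultured with fluconazole at 8 µg/mL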
Large T antigen = Large T antigen (Simian virus 40, UniProt P03070); type: functional, Betapolyomavirus macacae;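 further: Confirmatory-stage PubChem screen for compounds that inhibit SV40 T antigen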
Sequence of Large T antigen (P03070 whole entry): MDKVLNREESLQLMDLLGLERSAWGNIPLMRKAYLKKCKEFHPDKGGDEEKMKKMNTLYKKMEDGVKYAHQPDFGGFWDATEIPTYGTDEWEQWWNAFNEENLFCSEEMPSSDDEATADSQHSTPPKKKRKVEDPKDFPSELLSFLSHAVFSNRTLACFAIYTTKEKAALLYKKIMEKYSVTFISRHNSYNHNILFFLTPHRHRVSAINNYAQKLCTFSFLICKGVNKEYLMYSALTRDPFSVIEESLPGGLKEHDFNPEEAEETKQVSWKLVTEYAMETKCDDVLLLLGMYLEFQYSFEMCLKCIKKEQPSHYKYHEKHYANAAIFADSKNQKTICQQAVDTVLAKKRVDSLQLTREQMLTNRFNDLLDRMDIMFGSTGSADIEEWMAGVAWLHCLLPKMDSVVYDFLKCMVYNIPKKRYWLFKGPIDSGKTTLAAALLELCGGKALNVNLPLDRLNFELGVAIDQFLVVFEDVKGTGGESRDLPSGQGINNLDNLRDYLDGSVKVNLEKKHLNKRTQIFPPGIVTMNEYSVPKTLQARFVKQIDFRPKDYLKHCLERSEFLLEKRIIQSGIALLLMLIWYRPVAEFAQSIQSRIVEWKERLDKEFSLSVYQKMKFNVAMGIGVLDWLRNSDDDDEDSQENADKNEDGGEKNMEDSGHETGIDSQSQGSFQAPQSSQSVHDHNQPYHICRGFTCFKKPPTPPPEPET

Protein skinhead-1 = molecular target: T3, Protein skinhead-1 (Caenorhabditis elegans, UniProt P34707); type: functional
T3 sequence (P34707 whole entry): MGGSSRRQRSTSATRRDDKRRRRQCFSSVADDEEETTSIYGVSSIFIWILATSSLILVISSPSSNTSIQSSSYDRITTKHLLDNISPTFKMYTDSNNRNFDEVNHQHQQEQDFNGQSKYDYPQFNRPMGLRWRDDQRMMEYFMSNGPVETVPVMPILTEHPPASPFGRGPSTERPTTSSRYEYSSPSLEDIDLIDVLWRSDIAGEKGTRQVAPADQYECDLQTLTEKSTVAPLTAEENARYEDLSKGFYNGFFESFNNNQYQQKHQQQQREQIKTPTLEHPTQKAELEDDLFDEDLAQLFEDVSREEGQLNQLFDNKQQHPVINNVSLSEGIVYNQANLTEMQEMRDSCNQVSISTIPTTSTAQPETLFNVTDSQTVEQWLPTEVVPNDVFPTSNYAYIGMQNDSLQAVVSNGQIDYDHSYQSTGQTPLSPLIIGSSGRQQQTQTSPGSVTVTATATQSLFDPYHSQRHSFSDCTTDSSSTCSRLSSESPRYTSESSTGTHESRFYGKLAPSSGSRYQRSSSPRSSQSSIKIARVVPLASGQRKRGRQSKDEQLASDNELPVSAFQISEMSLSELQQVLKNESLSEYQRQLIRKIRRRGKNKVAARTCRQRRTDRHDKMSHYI

[14] = molecular target: T4, Heat shock factor protein 1 (Mus musculus, UniProt P38532); assay: enhancement of HSF1-driven luciferase signal – cell-based, NIH3T3, luminescence, dose retest, confirmation (AID 435004); type: functional;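 further: stress induced by proteasome inhibitor MG132 added 30 min after compound; luciferase reporter driven by HSF1 response element in NIH3T3 cells; actives raise luminescence as potentiators of the MG132 stress response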
T4 sequence (P38532 whole entry): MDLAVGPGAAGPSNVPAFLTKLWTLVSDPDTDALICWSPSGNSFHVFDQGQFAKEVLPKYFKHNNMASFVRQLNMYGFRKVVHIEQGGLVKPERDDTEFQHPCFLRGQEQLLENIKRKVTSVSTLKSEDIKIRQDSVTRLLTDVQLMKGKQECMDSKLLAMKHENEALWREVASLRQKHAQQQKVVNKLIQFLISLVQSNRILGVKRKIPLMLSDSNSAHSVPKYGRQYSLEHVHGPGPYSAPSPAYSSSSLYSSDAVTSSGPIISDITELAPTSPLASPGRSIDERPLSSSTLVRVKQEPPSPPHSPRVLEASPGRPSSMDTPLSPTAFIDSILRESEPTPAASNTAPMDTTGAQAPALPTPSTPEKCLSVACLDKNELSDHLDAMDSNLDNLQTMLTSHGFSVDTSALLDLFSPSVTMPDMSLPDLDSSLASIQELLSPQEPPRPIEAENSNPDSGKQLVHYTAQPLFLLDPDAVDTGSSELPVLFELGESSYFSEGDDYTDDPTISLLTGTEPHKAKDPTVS

[15] = THP-1 cell cytotoxicity, dose response, cytotoxicity control for non-replicating M. tuberculosis project (AID 489025); type: functional
cells [16] = type: functional

Which EC50 [1] does the source give for `CCCCNC(=O)CCn1c(=O)c2ccccc2n(Cc2ccc(Cl)cc2)c1=O` here?
The EC50 was 19.5 µM (active).

And the EC50 [2]?
Its EC50 is 18 µM (active).

For `CN(C1CCCCC1)S(=O)(=O)c1ccc(C(=O)N2CCN(c3nc4ccccc4s3)CC2)cc1`, which AC50 (HEK293) is on record?
Its AC50 is 2.85 µM (active).

Which EC50 [3] does the source give for `O=C(NNC(=O)c1cc(Cl)ccc1[N+](=O)[O-])c1csc(N2CCOCC2)n1` here?
The EC50 was > 300 µM (inconclusive).

For `COc1ccc(Cn2c(=N)c(C(=O)NCC3CCCO3)cc3c(=O)n4ccccc4nc32)cc1` (stereo not drawn), which EC50 [4] is on record?
The EC50 was > 50 µM (active).

With `Cc1occc1C(=O)NC1CCCCCC1` as the compound, how does the EC50 (cells [5]) read?
The EC50 was > 350 µM (not active).

And the EC50 (cells [6])?
Its EC50 is 73 µM (active).

Which results are given for `COC(=O)C1=C(C)N(Cc2ccc(OC)cc2)C(=O)C1`?
EC50 (cells [5]): > 350 µM (not active); EC50 (cells [6]): > 350 µM (not active)

For `N#Cc1c2ccc([N+](=O)[O-])cc2[n+]([O-])n1-c1ccccc1`, which AC50 [7] is on record?
Its AC50 is 2.86 µM (active).

What about the AC50 (INS1) of the same compound?
The AC50 was 3.15 µM (active).

With `CCc1nc(SCC(=O)N2c3ccccc3CC2C)c2c(C)c(C)sc2n1` (stereo not drawn) as the compound, how does the CC50 [8] read?
The CC50 was 5.39 µM (active).

And the EC50 (Streptokinase A)?
Its EC50 is 57.8 µM (active).

What about the EC50 [9] of the same compound?
Its EC50 is 13.8 µM (active).

What about the EC50 [10] of the same compound?
Its EC50 is > 120 µM (not active).

What about the IC50 (cells [11]) of the same compound?
Its IC50 is 3.55 µM (active).

And the EC50 [12]?
The EC50 was 18 µM (active).

What about the EC50 (Streptococcus) of the same compound?
Its EC50 is > 150 µM (not active).

Which results are given for `CN(C)c1ccc(NC(=O)/C=C/c2c(Cl)cccc2Cl)cc1`?
CC50 [8]: 17.3 µM (active); IC50 (cells [11]): 10.2 µM (active)

With `O=c1cc(CN2CCN(Cc3ccccc3)CC2)c2ccc(O)c(O)c2o1` as the compound, how does the EC50 [13] read?
The EC50 was > 160 µM (inactive).

And the IC50 (Large T antigen)?
Its IC50 is 4.91 µM (active).

With `Cc1ccc(S/C=C\C(=O)c2ccccc2)cc1` as the compound, how does the EC50 [1] read?
The EC50 was 33.1 µM (active).

What about the IC50 (Protein skinhead-1) of the same compound?
Its IC50 is 32.9 µM (active).

And the EC50 [2]?
Its EC50 is 98.5 µM (active).

And the EC50 [14]?
Its EC50 is 8.81 µM (active).

For `COc1ccc(S(=O)(=O)N2CCOC2CNC(=O)C(=O)NCc2ccc3c(c2)OCO3)cc1OC` (stereo not drawn), which EC50 (cells [5]) is on record?
The EC50 was > 350 µM (not active).

And the EC50 (cells [6])?
Its EC50 is > 350 µM (not active).

With `N=C(NOS(=O)(=O)c1ccccc1)c1cccnc1` as the compound, how does the EC50 [4] read?
Its EC50 is > 50 µM (active).

For `CCOC(=O)c1c(C)[nH]c(C(=O)OCC(=O)Nc2cc(C)c(Cl)cc2OC)c1C`, which EC50 [1] is on record?
Its EC50 is 16.2 µM (active).

What about the EC50 [2] of the same compound?
Its EC50 is 12.8 µM (active).

Which CC50 [15] does the source give for `O=[N+]([O-])c1ccc(CNc2cccc(Cl)c2)s1` here?
The CC50 was > 40 µM (active).

And the IC50 (cells [16])?
The IC50 was 48.6 µM (active).
